“Also recorded” adds a separate entry of the source. Residues, ends and D or L forms follow the SMILES beside them.
Experiments:
murine NSCs [1] = assay: Immunofluorescence of differentiated NSC progeny on scaffolds, murine NSCs; type: cell-based; details: for percentages of neurons (βIIITubulin positive cells): scaffolds of stiffness 100, 500 and 1000 Pa, best values, softer scaffolds; for differentiated neurons (βIIITubulin positive cells) versus scaffold stiffness: stiffness 100, 500 and 1000 Pa, P<0.05, P<0.01
Description: (§1) In vitro tests were performed as previously described (8), in order to assess whether the biomaterials (assembled hydrogels) obtained with the SAPs of the present invention influenced NSCs adhesion, survival and/or differentiation. SAPeptides (30 µl for each well at a concentration of 10 mg/ml) were assembled into 96 multiwells two hours before cell. Cells (at a concentration of 2x10^4 cells/cm^2) were seeded on the top-surface of each assembled scaffold. Initially, cells were cultured with basal medium supplemented with βFGF (10 ng/ml), added to enhance neuronal progeny differentiation. At 3 days in vitro (DIV), βFGF medium was replaced with Leukemia Inhibitory Factor (LIF, Chemicon) (20 ng/ml) and Brain Derived Neurotrophic Factor (BDNF, Peprotech) (20 ng/ml). Fresh medium was added every three days. For both viability and differentiation assays positive and negative controls consisted of Cultrex-BME® substrate (R&D systems) (1:100 dilution in basal medium) and untreated bottom well surfaces respectively. Cell viability was quantified via CellTiter 96® Aqueous Proliferation Assay (Promega) at 7 DIV as recommended in the Promega protocol. After calibrating the linear response between the cell number and absorbance values, proliferated cell populations were quantified (n=5) by using a Vmax microplate reader (Molecular Devices) at 490nm wavelength. Values, reported as means ± standard error of the mean, were blanked to their respective controls consisting of same substrates and cell culture media without cells.
(§2) Immunofluorescence tests were performed for assaying the phenotypes of the differentiated human and murine NSC progenies. In the case of KLP and Ac-KLP just murine NSC have been used. Ac-KLP and KLP scaffolds were prepared at different concentrations in order to display three different stiffness values (viz. 100, 500 and 1000 Pa). This was done to assess the influence of scaffold concentration (and consequently its stiffness) over NSC differentiation. All the other peptides were tested at 1% v/w concentration instead. The following antibodies were used: rabbit polyclonal against GFAP (1:500, DakoCytomation) for astrocytes, mouse monoclonal against βIII-Tubulin (1:500, Covance) for neurons, mouse monoclonal against GalC (1:200, Chemicon) and O4 (1:200, Chemicon) for oligodendrocyes. Secondary Abs were Goat anti Mouse Alexa 488 (1:1000, Molecular Probes), Goat anti Mouse Cy3 (1:1000, Jackson Immunoresearch), Goat anti Rabbit Cy3 (1:1000, Jackson Immunoresearch). Cell nuclei were counterstained with DAPI (Molecular Probes). Quantitative analyses were performed by counting 100-300 cells for each of 9 randomly chosen fields over a total of 3 independent experiments. Phase contrast and fluorescence images of the adhering cells were acquired via Zeiss microscopes Axioplan 2 and ApoTome System at one week after seeding.

[2] = Rheology (frequency, time and strain sweeps); type: physicochemical; details: for G' pre-assembling: average storage modulus of SAPeptide solution, before PBS; for G' pre-assembling / G' post-assembling: 1-100 Hz; for G' post-assembling: average storage modulus of jellified scaffold, after PBS; for Onset point (% strain): strain percentage at rupture, strain sweep at 1 Hz, 25 C
Description: Rheological properties of the self-assembling peptides of the invention were determined using a controlled stress TA Instruments AR-2000ex rheometer (TA Instruments). A cone-and-plate geometry (acrylic cone diameter, 20 mm; angle, 1°; truncation gap 34 µm) was used. Preliminary strain sweeps were performed for each sample to define the linear viscoelastic region, thus ensuring that moduli were independent of strain. Time sweeps, after addition of PBS (1x) were recorded at 25 C (angular frequency ω=1 Hz) and continued till G' plateaued. Frequency sweeps, both for peptide water solutions and for self-assembled scaffolds, were performed at 25 C with the instrument in oscillatory mode at controlled strain of 1 %. Final strain sweeps was performed at 1Hz oscillatory frequency and at 25 C: onset point of failure was calculated by linear interpolation and subsequent determination of the intersection of the G' modes within the linear region and at material failure respectively.

murine NSCs [3] = assay: Imaging and cell proliferation (MTS) assay on assembled scaffolds, murine NSCs; type: cell-based; details: for cell morphology, adhesion and spreading: 7 DIV on assembled hydrogels; for cell viability (MTS, cell population): 7 DIV, scaffolds 10 mg/ml, vs control, P<0.005, n=5
Description: as §1

human NSCs [4] = assay: Imaging and cell proliferation (MTS) assay on assembled scaffolds, human NSCs; type: cell-based; details: for cell viability (MTS, cell population): 7 DIV, scaffolds 10 mg/ml, vs control, P<0.03, n=5
Description: as §1

human NSCs [5] = assay: Immunofluorescence of differentiated NSC progeny on scaffolds, human NSCs; type: cell-based; details: 1% scaffold; compared to Cultrex positive control
Description: as §1
as §2, with “Cell nuclei were counterstained with DAPI (Molecular Probes).” left out

[6] = 1% scaffold, compared to Cultrex positive control

| Compound | G' and G" values at different concentrations ([2]; 1% w/v, 2% w/v and 3% w/v) | G' pre-assembling ([2]; 1% w/v) [Pa] | G' post-assembling ([2]; 1% w/v) [Pa] | Onset point (% strain) [2] [%] | percentages of neurons (βIIITubulin positive cells) (murine NSCs [1]) | differentiated neurons (βIIITubulin positive cells) versus scaffold stiffness (murine NSCs [1]) | number of neurons (murine NSCs [1]; [6]) | number of oligodendrocytes (murine NSCs [1]; [6]) | cell morphology, adhesion and spreading (murine NSCs [3]) | cell viability (MTS, cell population) (murine NSCs [3]) | cell morphology, adhesion and spreading (human NSCs [4]; 7 DIV on assembled hydrogels) | cell viability (MTS, cell population) (human NSCs [4]) | number of neurons (human NSCs [5]) | number of oligodendrocytes (human NSCs [5]) |
| --- | --- | --- | --- | --- | --- | --- | --- | --- | --- | --- | --- | --- | --- | --- |
| CC(=O)N[C@@H](CCCCN)C(=O)N[C@@H](CC(C)C)C(=O)N1CCC[C@H]1C(=O)NCC(=O)N[C@@H](Cc1c[nH]c2ccccc12)C(=O)N[C@@H](CO)C(=O)NCC(=O)NCC(=O)NCC(=O)NCC(=O)N[C@@H](CC(C)C)C(=O)N[C@@H](CC(=O)O)C(=O)N[C@@H](CC(C)C)C(=O)N[C@@H](CCCCN)C(=O)N[C@@H](CC(C)C)C(=O)N[C@@H](CC(=O)O)C(=O)N[C@@H](CC(C)C)C(=O)N[C@@H](CCCCN)C(=O)N[C@@H](CC(C)C)C(=O)N[C@@H](CC(=O)O)C(=O)N[C@@H](CC(C)C)C(=O)N[C@@H](CCCCN)C(N)=O [Ac-KLP, Ac-KLPGWSG-GGG-LDLKLDLKLDLK-CONH2] (Ac-KLPGWSGGGGLDLKLDLKLDLK-NH2) | increased with concentration increments | 2.88 | 91.2 | 47.82 | above 50% | significant increments of differentiated neurons | – | – | – | – | – | – | – | – |
| CC(=O)N[C@@H](CCC(N)=O)C(=O)N[C@@H](Cc1c[nH]cn1)C(=O)N[C@@H](CC(C)C)C(=O)N1CCC[C@H]1C(=O)N[C@@H](CCCNC(=N)N)C(=O)N[C@@H](CC(=O)O)C(=O)N[C@@H](Cc1c[nH]cn1)C(=O)NCC(=O)NCC(=O)NCC(=O)N[C@@H](CC(C)C)C(=O)N[C@@H](CC(=O)O)C(=O)N[C@@H](CC(C)C)C(=O)N[C@@H](CCCCN)C(=O)N[C@@H](CC(C)C)C(=O)N[C@@H](CC(=O)O)C(=O)N[C@@H](CC(C)C)C(=O)N[C@@H](CCCCN)C(=O)N[C@@H](CC(C)C)C(=O)N[C@@H](CC(=O)O)C(=O)N[C@@H](CC(C)C)C(=O)N[C@@H](CCCCN)C(N)=O [Ac-QHL, Ac-QHLPRDH-GGG-LDLKLDLKLDLK-CONH2] (Ac-QHLPRDHGGGLDLKLDLKLDLK-NH2) | – | 2.68 | 166.7 | 10.16 | – | – | – | – | – | – | – | – | – | – |
| CC(=O)N[C@@H](CO)C(=O)N[C@@H](CO)C(=O)N[C@@H](CC(C)C)C(=O)N[C@@H](CO)C(=O)N[C@H](C(=O)N[C@@H](CC(N)=O)C(=O)N[C@@H](CC(=O)O)C(=O)NCC(=O)NCC(=O)NCC(=O)N[C@@H](CC(C)C)C(=O)N[C@@H](CC(=O)O)C(=O)N[C@@H](CC(C)C)C(=O)N[C@@H](CCCCN)C(=O)N[C@@H](CC(C)C)C(=O)N[C@@H](CC(=O)O)C(=O)N[C@@H](CC(C)C)C(=O)N[C@@H](CCCCN)C(=O)N[C@@H](CC(C)C)C(=O)N[C@@H](CC(=O)O)C(=O)N[C@@H](CC(C)C)C(=O)N[C@@H](CCCCN)C(N)=O)C(C)C [Ac-SSL, Ac-SSLSVND-GGG-LDLKLDLKLDLK-CONH2] (Ac-SSLSVNDGGGLDLKLDLKLDLK-NH2) | – | 6.72 | 267.3 | 26.12 | – | – | – | – | – | – | – | – | – | – |

The next lines start with results.

| G' and G" values at different concentrations ([2]; 1% w/v, 2% w/v and 3% w/v) | G' pre-assembling ([2]; 1% w/v) [Pa] | G' post-assembling ([2]; 1% w/v) [Pa] | Onset point (% strain) [2] [%] | Compound | percentages of neurons (βIIITubulin positive cells) (murine NSCs [1]) | differentiated neurons (βIIITubulin positive cells) versus scaffold stiffness (murine NSCs [1]) | number of neurons (murine NSCs [1]; [6]) | number of oligodendrocytes (murine NSCs [1]; [6]) | cell morphology, adhesion and spreading (murine NSCs [3]) | cell viability (MTS, cell population) (murine NSCs [3]) | cell morphology, adhesion and spreading (human NSCs [4]; 7 DIV on assembled hydrogels) | cell viability (MTS, cell population) (human NSCs [4]) | number of neurons (human NSCs [5]) | number of oligodendrocytes (human NSCs [5]) |
| --- | --- | --- | --- | --- | --- | --- | --- | --- | --- | --- | --- | --- | --- | --- |
| – | 6.66 | 142.7 | 25.43 | CC(C)C[C@H](NC(=O)CNC(=O)CNC(=O)CNC(=O)[C@@H]1CCCN1C(=O)[C@@H]1CCCN1C(=O)[C@@H](NC(=O)[C@H](CCCNC(=N)N)NC(=O)[C@H](CCC(N)=O)NC(=O)[C@H](C)NC(=O)[C@@H](N)Cc1ccccc1)C(C)C)C(=O)N[C@@H](CC(=O)O)C(=O)N[C@@H](CC(C)C)C(=O)N[C@@H](CCCCN)C(=O)N[C@@H](CC(C)C)C(=O)N[C@@H](CC(=O)O)C(=O)N[C@@H](CC(C)C)C(=O)N[C@@H](CCCCN)C(=O)N[C@@H](CC(C)C)C(=O)N[C@@H](CC(=O)O)C(=O)N[C@@H](CC(C)C)C(=O)N[C@@H](CCCCN)C(N)=O [FAQ, NH2-FAQRVPP-GGG-LDLKLDLKLDLK-CONH2] (H-FAQRVPPGGGLDLKLDLKLDLK-NH2) | – | – | significantly higher | significantly higher | spread and branched cells | significantly fostered cell viability; also recorded: cell population was bigger | spread and branched cells | significantly fostered cell viability; also recorded: cell population was bigger | significantly higher | significantly higher |
| – | 3.30 | 51.38 | 56.46 | CC(C)C[C@H](NC(=O)CNC(=O)CNC(=O)CNC(=O)CNC(=O)[C@H](CO)NC(=O)[C@H](Cc1c[nH]c2ccccc12)NC(=O)CNC(=O)[C@@H]1CCCN1C(=O)[C@H](CC(C)C)NC(=O)[C@@H](N)CCCCN)C(=O)N[C@@H](CC(=O)O)C(=O)N[C@@H](CC(C)C)C(=O)N[C@@H](CCCCN)C(=O)N[C@@H](CC(C)C)C(=O)N[C@@H](CC(=O)O)C(=O)N[C@@H](CC(C)C)C(=O)N[C@@H](CCCCN)C(=O)N[C@@H](CC(C)C)C(=O)N[C@@H](CC(=O)O)C(=O)N[C@@H](CC(C)C)C(=O)N[C@@H](CCCCN)C(N)=O [KLP, NH2-KLPGWSG-GGG-LDLKLDLKLDLK-CONH2] (H-KLPGWSGGGGLDLKLDLKLDLK-NH2) | above 50% | significant increments of differentiated neurons | – | – | fostered NSCs adhesion and spreading similarly to FAQ | – | – | – | – | – |
| – | 4.53 | 296.9 | 28.58 | CC(C)C[C@H](NC(=O)CNC(=O)CNC(=O)CNC(=O)[C@H](Cc1c[nH]cn1)NC(=O)[C@H](CC(=O)O)NC(=O)[C@H](CCCNC(=N)N)NC(=O)[C@@H]1CCCN1C(=O)[C@H](CC(C)C)NC(=O)[C@H](Cc1c[nH]cn1)NC(=O)[C@@H](N)CCC(N)=O)C(=O)N[C@@H](CC(=O)O)C(=O)N[C@@H](CC(C)C)C(=O)N[C@@H](CCCCN)C(=O)N[C@@H](CC(C)C)C(=O)N[C@@H](CC(=O)O)C(=O)N[C@@H](CC(C)C)C(=O)N[C@@H](CCCCN)C(=O)N[C@@H](CC(C)C)C(=O)N[C@@H](CC(=O)O)C(=O)N[C@@H](CC(C)C)C(=O)N[C@@H](CCCCN)C(N)=O [QHL, NH2-QHLPRDH-GGG-LDLKLDLKLDLK-CONH2] (H-QHLPRDHGGGLDLKLDLKLDLK-NH2) | – | – | – | – | – | significantly fostered cell viability; also recorded: significantly favored | – | significantly fostered cell viability; also recorded: significantly favored | – | – |
| – | 9.01 | 124.7 | 17.78 | CC(C)C[C@H](NC(=O)CNC(=O)CNC(=O)CNC(=O)[C@H](CC(=O)O)NC(=O)[C@H](CC(N)=O)NC(=O)[C@@H](NC(=O)[C@H](CO)NC(=O)[C@H](CC(C)C)NC(=O)[C@H](CO)NC(=O)[C@@H](N)CO)C(C)C)C(=O)N[C@@H](CC(=O)O)C(=O)N[C@@H](CC(C)C)C(=O)N[C@@H](CCCCN)C(=O)N[C@@H](CC(C)C)C(=O)N[C@@H](CC(=O)O)C(=O)N[C@@H](CC(C)C)C(=O)N[C@@H](CCCCN)C(=O)N[C@@H](CC(C)C)C(=O)N[C@@H](CC(=O)O)C(=O)N[C@@H](CC(C)C)C(=O)N[C@@H](CCCCN)C(N)=O [SSL, NH2-SSLSVND-GGG-LDLKLDLKLDLK-CONH2] (H-SSLSVNDGGGLDLKLDLKLDLK-NH2) | – | – | – | – | – | – | – | – | – | – |

Source: patent EP2686338B1, “FUNCTIONALIZED BIOMATERIALS FOR TISSUE REGENERATION” (Nanomed3d S.r.l., priority 2011, dated 2018)
